Assay [1] concerns the target T1, JMJD2E (Homo sapiens, UniProt B2RXH2).
T1 sequence (B2RXH2 1-337): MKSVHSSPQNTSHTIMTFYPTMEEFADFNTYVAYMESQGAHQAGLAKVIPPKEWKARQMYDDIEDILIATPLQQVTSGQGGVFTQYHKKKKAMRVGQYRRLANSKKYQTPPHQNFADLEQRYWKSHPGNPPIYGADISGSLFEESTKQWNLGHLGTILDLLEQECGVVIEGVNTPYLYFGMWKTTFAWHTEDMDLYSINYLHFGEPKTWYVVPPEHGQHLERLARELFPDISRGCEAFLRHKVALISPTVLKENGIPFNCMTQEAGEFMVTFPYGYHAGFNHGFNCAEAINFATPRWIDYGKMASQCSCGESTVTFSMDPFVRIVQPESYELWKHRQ

The target of assay [2] is T1, JMJD2E. In words: miniaturized 1,536-well FDH-coupled JMJD2E qHTS assay. Type of assay: biochemical. Background: Quantitative high-throughput screening tests each substance at several concentrations.
The target of assay [3] is T1, JMJD2E. Put plainly: biochemical.
Assay [4] addresses T1, JMJD2E. Put plainly: kinetic analysis of the mode of inhibition of JMJD2E with respect to 2OG. Type of assay: biochemical.

Where a name gives a salt, the structure may show the parent alone. Read-outs that look alike come from different tables or passages of the source.

One may read the IC50 as the concentration that inhibits the measured activity by half. Low readings indicate higher potency, high ones lower potency. `C[C@](N)(Cc1ccc(O)c(O)c1)C(=O)O` [L-Methyldopa]: in assay [1], the concentration for half-maximal inhibition (IC50) turned out to be 6.1 µM. Consider `O=C(O[C@@H]1Cc2c(O)cc(O)cc2O[C@@H]1c1cc(O)c(O)c(O)c1)c1cc(O)c(O)c(O)c1` [Epigallocatechin gallate], for which the half-maximal inhibitory concentration (IC50) in assay [1] was 3 µM. Turning to `CC1(C)CCC2=C(O1)c1ccccc1C(=O)C2=O` [beta-Lapachone], the concentration for half-maximal inhibition (IC50) worked out at 3.6 µM in assay [2] and 8.4 µM in assay [3]. Turning to `Oc1ccc(C2CNCCc3c2cc(O)c(O)c3Cl)cc1` (stereo not shown) [Fenoldopam bromide], the figures for the IC50 in assay [2] and in assay [3] were 7.9 µM and 10.1 µM, respectively.

For the compound `NCCc1ccc(O)c(O)c1` [Dopamine hydrochloride], the half-maximal inhibitory concentration (IC50) in assay [2] is 7.1 µM; in assay [3], 2.2 µM. On to `O=c1cc(-c2ccccc2)oc2cc(O)c(O)c(O)c12` [Baicalein], for which, in assay [4], the “mode of inhibition of JMJD2E with respect to 2OG” value is reported as “noncompetitive”. The 50% inhibitory concentration (IC50) in assay [2] came out at 4 µM; in assay [3] it was 4.5 µM. `Oc1cc(O)c2c(c1)O[C@H](c1cc(O)c(O)c(O)c1)[C@H](O)C2` [Epigallocatechin]: the IC50 in assay [2] came to 5 µM. This counts as single-digit micromolar. Consider S(−)-Carbidopa, for which, in assay [4], the “mode of inhibition of JMJD2E with respect to 2OG” value is “uncompetitive”. In assay [4] (uncompetitive with respect to 2OG), the αKi worked out at 1.98 ± 0.17. In addition, inhibition in assay [1] was half-maximal at 7.5 µM (IC50). Consider `NCCc1cc(O)c(O)cc1O` [Oxidopamine Hydrochloride], for which the IC50 in assay [2] was determined as 4 µM; in assay [3] it was 12.2 µM.

Turning to `Oc1cc2c(cc1O)[C@@H]1c3ccc(O)c(O)c3OC[C@]1(O)C2` [hematoxylin], the IC50 came out at 2 µM in assay [2] and 3.4 µM in assay [3].
